Ends that are not written are not given here.
Molecular target: T1, thrombin receptor (Homo sapiens, UniProt P25116)
T1 construct: endogenous in cells; host or cells: washed platelets from fresh blood
T1 sequence (P25116 22-425): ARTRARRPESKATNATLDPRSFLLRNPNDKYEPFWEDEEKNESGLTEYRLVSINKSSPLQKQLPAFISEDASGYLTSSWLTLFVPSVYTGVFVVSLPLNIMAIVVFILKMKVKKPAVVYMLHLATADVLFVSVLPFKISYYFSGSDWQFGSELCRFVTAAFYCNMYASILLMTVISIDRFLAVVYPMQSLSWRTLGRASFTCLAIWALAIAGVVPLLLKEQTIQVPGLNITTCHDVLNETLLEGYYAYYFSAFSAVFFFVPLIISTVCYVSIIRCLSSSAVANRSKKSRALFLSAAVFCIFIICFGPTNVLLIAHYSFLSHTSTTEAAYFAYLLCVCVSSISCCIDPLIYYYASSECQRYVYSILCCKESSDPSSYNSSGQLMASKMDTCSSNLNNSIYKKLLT
Assay: flow cytometry of thrombin receptor epitopes (SPAN12, ATAP138) on α-thrombin activated platelets
Type: cell-based
Details: peptide 1 mM, α-thrombin 1 nM
Protocol: Flow cytometry studies were performed to determine whether BK analogs prevent α-thrombin from eliminating an epitope on the thrombin receptor which is lost following α-thrombin cleavage- of the receptor. SPAN12 is an antibody to the thrombin receptor on platelets, which is specific for such an epitope. Studies were also performed to determine the effect of BK analogs on an epitope recognized by monoclonal antibody ATAP 138. The antibody is directed to an epitope on the thrombin receptor which is preserved after α-thrombin cleaves the receptor (FIGS. 7A-7D).
Monoclonal antibody SPAN12 was reared to the 12 amino acids, Asn-Ala-Thr-Leu-Asp-Pro-Arg-Ser-Phe-Leu-Leu-Arg (SEQ ID NO:2), that bridge the α-thrombin cleavage site on the thrombin receptor by the methods of Molinot et al., J. Biol. Chem. 270:ln Press, 1995. […]
Mouse IgG and an antibody to the epitope CD62 were used as controls. […] The fluorescence of bound FITC-anti-IgG to platelets was monitored on an Epics-C flow cytometer (Coulter Electronics, Hialeah, Fla.). Light scatter and fluorescence channels were set at logarithmic gain. […] Green fluorescence was observed through a 525 nm band pass filter. The relative fluorescence intensity of at least 15,000 platelets was analyzed in each sample. […]

RPPGFSPFR [BK, bradykinin]
loss of SPAN12 epitope of thrombin receptor on α-thrombin activated platelets: prevents the loss of the epitope

From patent US6143719A, “Bradykinin analogs as selective thrombin inhibitors” (The Regents of the University of Michigan, priority 1996, dated 2000)
